Measurements reported in patent publication US12036270B2, “Method for immunomodulation of using aza-podophyllotoxin derivatives” (Sistema Universitario Ana G. Mendez, priority 2015, dated 2024).
Where “and” joins values, the source holds several entries; their conditions need not be identical. Equal values may be shown once.

Tested on: mouse splenocytes
Assay: in vitro stimulation of mouse splenocytes/lymphocytes, cytokine release measured in supernatant by protein microarray chip
Format: cell-based
Details: for IL-6 produced: Example 1 and b94-b99; for GCSF levels: Example 2 and b94-b99; for cytokine milieu (TH1/TH2/TH17 bias): profile of AP-treated mouse splenocytes
Method: A total of 2×10^5 mouse splenocytes per well were cultured in a humidified atmosphere at 37° C. and 5% CO2 in round-bottomed 96-well culture plates for five days with the AP compounds […]. Concanavalin A ([…]) and culture media were used as positive and negative controls, respectively. Plates were centrifuged at 1,200 RPM for five minutes, and supernatants were collected. The resulting cytokine profile produced after lymphocyte stimulation was analyzed using a fluorescently-labeled protein microarray chip as indicated by the manufacturer (RayBiotech, Norcross, Ga., USA).
The immunomodulatory effect of the AP compounds was assessed by in vitro stimulation of mouse lymphocytes for five days.

[1] = mouse splenocytes, five days, listed as AP-312
[2] = mouse splenocytes, five days, listed as AP-103
[3] = mouse splenocytes, five days, listed as AP-311
[4] = mouse splenocytes, five days, listed as AP-102

Structure (SMILES)	IL-1b induced (mouse splenocytes, five days)	IL-12 (IL-12p70) induced (mouse splenocytes, five days)	IL-15 induced (mouse splenocytes, five days)	IL-23 induced (mouse splenocytes, five days)	IL-6 produced (mouse splenocytes, five days)	GCSF levels (mouse splenocytes, five days)	G-CSF induced (summary / preliminary data) (mouse splenocytes, five days)	IL-6 induced (summary / preliminary data) (mouse splenocytes, five days)	cytokine milieu (TH1/TH2/TH17 bias)	also measured
COc1cc(C2C3=C(COC3=O)N(CCO)c3cc4c(cc32)CCC4)cc(OC)c1O (stereo not drawn) [AP205]	19.45 pg/mL	60 pg/mL and 60.14 pg/mL	94 pg/mL and 94.04 pg/mL	80 pg/mL and 79.96 pg/mL	1445 pg/mL and 1444.71 pg/mL	2336 pg/mL and 2336.49 pg/mL	7166 pg/mL	4351 pg/mL	high TH2-type cytokines, but equally comparably low TH1 and TH2	IL-1a induced (mouse splenocytes, five days): 20 pg/mL and 20.29 pg/mL; IL-9 induced (mouse splenocytes, five days): 30 pg/mL and 30.45 pg/mL
O=C1OCC2=C1C(c1ccccc1)c1cc3c(cc1N2CCO)OCO3 (stereo not drawn) [AP104]		22 pg/mL		58 pg/mL and 58.48 pg/mL	261 pg/mL and 260.85 pg/mL	690 pg/mL and 690.39 pg/mL	2071 pg/mL	782 pg/mL	high TH2-type cytokines, but equally comparably low TH1 and TH2	IFN-gamma induced (mouse splenocytes, five days): 104.58 pg/mL; IL-2p70 induced (so in the source) (mouse splenocytes, five days): 21.99 pg/mL; IL-10 induced (mouse splenocytes, five days): 14 pg/mL and 13.78 pg/mL
COc1cccc(C2C3=C(COC3=O)N(CCO)c3cc4c(cc32)OCCO4)c1OC (stereo not drawn) [AP312]	11.89 pg/mL	13 pg/mL			270 pg/mL			810 pg/mL	strong TH2 cytokine milieu, followed by a TH17, and a smaller TH1 cytokine profile	IL-6 produced [1]: 269.89 pg/mL; IL-12 (IL-12p70) induced [1]: 27.89 pg/mL
COc1cccc(C2C3=C(COC3=O)N(CCO)c3cc4c(cc32)OCO4)c1 (stereo not drawn) [AP103]	3.95 pg/mL	21 pg/mL			375 pg/mL	858 pg/mL	2575 pg/mL	1125 pg/mL	high TH2-type cytokines, but equally comparably low TH1 and TH2	IL-6 produced [2]: 535.06 pg/mL; GCSF levels [2]: 858.15 pg/mL; IL-12 (IL-12p70) induced [2]: 35.70 pg/mL
COc1ccc(C2C3=C(COC3=O)N(CCO)c3cc4c(cc32)OCCO4)c(OC)c1OC (stereo not drawn) [AP311]			56 pg/mL	27 pg/mL	184 pg/mL			551 pg/mL	strong TH2 cytokine milieu, followed by a TH17, and a smaller TH1 cytokine profile	IL-6 produced [3]: 183.76 pg/mL; IL-23 induced [3]: 26.66 pg/mL
COc1ccc(C2C3=C(COC3=O)N(CCO)c3cc4c(cc32)OCO4)cc1OC (stereo not drawn) [AP102]		29 pg/mL			257 pg/mL	736 pg/mL	2208 pg/mL	772 pg/mL	highest TH17 cytokine biased, followed by a close TH2 biased and a smaller TH1 cytokine milieu	IL-2 induced (mouse splenocytes, five days): 17 pg/mL; IL-17 induced (mouse splenocytes, five days): 294 pg/mL; IL-6 produced [4]: 257.35 pg/mL; GCSF levels [4]: 735.83 pg/mL; IL-2 induced [4]: 17.36 pg/mL; IL-12 (IL-12p70) induced [4]: 29.09 pg/mL
